Experimental data published in ChEMBL document CHEMBL1201862, “PubChem BioAssay data set” (2004).
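In this assay, cells in 96-well plates receive the compound at five concentrations for 48 hours. Endpoints are linearly interpolated between the surrounding concentrations. Abbreviation: GI50, concentration required for 50% inhibition of growth.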 Active and inactive are the calls of the source. No stated cut-off is given here; in the data, active = GI50 up to about 1.1 µM and inactive = higher.

Columns and labels:
Assay in all cases: NCI anticancer screen, dose series, 48 h
U-251 = system: U-251
UO-31 = system: UO-31
A549 = system: A549
CCRF-CEM = system: CCRF-CEM
NCI-H460 = system: NCI-H460
ACHN = system: ACHN
DMS-114 = system: DMS-114
SK-MEL-5 = system: SK-MEL-5
SF-295 = system: SF-295
SNB-78 = system: SNB-78
M14 = system: M14
HCT-116 = system: HCT-116
NCI-H226 = system: NCI-H226
Malme-3M = system: Malme-3M
SF-539 = system: SF-539
SR = system: SR
HOP-18 = system: HOP-18
RXF 393 = system: RXF 393
MCF7 = system: MCF7
MDA-MB-231 = system: MDA-MB-231

Measured: GI50

COc1ccc(/C=C/C(=O)C(C)(C)C)cc1OC
inactive: U-251 > 100 µM | UO-31 > 100 µM | A549 > 100 µM | CCRF-CEM 36.2 µM | NCI-H460 > 100 µM | ACHN > 100 µM | DMS-114 39.7 µM | SK-MEL-5 54.1 µM | SF-295 > 100 µM | SNB-78 38 µM | M14 > 100 µM

Cc1ccc(/N=N/C(C2=NC(=O)CS2)c2nc3ccccc3[nH]2)cc1 (centres undefined)
inactive: U-251 > 100 µM | UO-31 > 100 µM | A549 > 100 µM | HCT-116 > 100 µM | CCRF-CEM 29.9 µM | NCI-H460 > 100 µM | ACHN > 100 µM | DMS-114 > 100 µM | SK-MEL-5 > 100 µM | SF-295 > 100 µM | NCI-H226 6.1 µM | Malme-3M > 100 µM | SF-539 54.6 µM | M14 > 100 µM | SR > 100 µM

CN1CCC(C(=O)NNc2ccccc2)CC1
inactive: U-251 > 17.7 µM | UO-31 3.16 µM | A549 12.2 µM | HCT-116 > 43.4 µM | HOP-18 > 61.5 µM | NCI-H460 5.62 µM | ACHN 2.66 µM | RXF 393 > 100 µM | DMS-114 9.31 µM | SK-MEL-5 14.4 µM | SF-295 2.12 µM | NCI-H226 > 100 µM | Malme-3M 22.4 µM | SNB-78 > 100 µM | SF-539 7.87 µM | M14 1.5 µM | SR 7.43 µM

CCCCCCNC(=O)C(C)C1CCC2(C)C=CC(=O)C(C)=C2C1O (centres undefined)
inactive: U-251 > 100 µM | UO-31 > 89.9 µM | A549 > 100 µM | HCT-116 > 100 µM | CCRF-CEM > 100 µM | HOP-18 > 100 µM | NCI-H460 > 100 µM | RXF 393 > 100 µM | DMS-114 45.3 µM | SK-MEL-5 > 74.1 µM | SF-295 > 100 µM | NCI-H226 > 100 µM | SNB-78 > 100 µM | SF-539 > 100 µM | MCF7 > 100 µM

Cc1coc2c1C[C@@]1(C)[C@H](CCC[C@@H]1C)[C@H]2O
inactive: U-251 42.4 µM | HCT-116 29.6 µM | CCRF-CEM 28.4 µM | NCI-H460 > 100 µM | ACHN 24.7 µM | RXF 393 20.8 µM | MDA-MB-231 20.7 µM | SK-MEL-5 15.1 µM | SF-295 30.9 µM | NCI-H226 15.5 µM | Malme-3M 18.8 µM | SF-539 25.1 µM | M14 60.4 µM | MCF7 52.7 µM | SR 14.6 µM

Cc1ccc2c(O)cc(-c3ccc(F)cc3)nc2n1
inactive: UO-31 59.2 µM | A549 61.7 µM | CCRF-CEM 32.1 µM | ACHN 42.6 µM | MDA-MB-231 63 µM | NCI-H226 37.1 µM | Malme-3M 32.4 µM | SF-539 42.5 µM | M14 47.6 µM | MCF7 26.4 µM | SR 7.4 µM
